≈ marks a conversion by molar mass, not a printed value.
Legend:
Format in all cases: functional
Escherichia coli [1] = assay: Antibacterial activity against rifampin resistant Escherichia coli RG488 receiving Klebsiella pneumoniae qnrB4 by agar dilution method
Escherichia coli [2] = assay: Antibacterial activity against rifampin resistant Escherichia coli RG488 receiving Klebsiella pneumoniae qnrB6 by agar dilution method
Escherichia coli [3] = assay: Antibacterial activity against rifampin resistant Escherichia coli RG488 receiving Klebsiella pneumoniae qnrS1 by agar dilution method
Escherichia coli [4] = assay: Antibacterial activity against rifampin resistant Escherichia coli RG488 receiving Escherichia coli qnrB4 by agar dilution method
Escherichia coli [5] = assay: Antibacterial activity against rifampin resistant Escherichia coli RG488 receiving Enterobacter cloacae qnrB4 by agar dilution method
Escherichia coli [6] = assay: Antibacterial activity against Escherichia coli J53 by agar dilution method
Escherichia coli [7] = assay: Antibacterial activity against Escherichia coli RG488 by agar dilution method

What does the source list for CCn1cc(C(=O)O)c(=O)c2ccc(C)nc21 [NALIDIXIC ACID]?
MIC90 (Escherichia coli [1]): 8 µg/mL (≈ 34.4 µM); MIC90 (Escherichia coli [2]): 16 µg/mL (≈ 68.9 µM); MIC90 (Escherichia coli [3]): 32 µg/mL (≈ 138 µM); MIC90 (Escherichia coli [4]): 16 µg/mL (≈ 68.9 µM); MIC90 (Escherichia coli [5]): 8 µg/mL (≈ 34.4 µM); MIC90 (Escherichia coli [6]): 4 µg/mL (≈ 17.2 µM); MIC90 (Escherichia coli [7]): 4 µg/mL (≈ 17.2 µM)

For O=C(O)c1cn(C2CC2)c2cc(N3CCNCC3)c(F)cc2c1=O [CIPROFLOXACIN], which MIC90 (Escherichia coli [1]) is on record?
Its MIC90 is 0.125 µg/mL (≈ 0.377 µM).

What about the MIC90 (Escherichia coli [3]) of the same compound?
The MIC90 was 1 µg/mL (≈ 3.02 µM).

And the MIC90 (Escherichia coli [6])?
Its MIC90 is 0.015 µg/mL (≈ 0.0453 µM).

And the MIC90 (Escherichia coli [7])?
The MIC90 was 0.03 µg/mL (≈ 0.0905 µM).

From ChEMBL document CHEMBL1275540, “Plasmid-mediated quinolone resistance determinants qnrA, qnrB, and qnrS among clinical isolates of Enterobacteriaceae in a Korean hospital” (2008)
